Reference: patent publication US5763700A, “Pesticidal fluoroolefins” (British Technology Group Limited, priority 1992, dated 1998)

System: cornroot worm (Diabrotica balteata)
Test: Residual soil activity against cornroot worm larvae, mortality after 48 hours, LC50 by probit analysis
Type: in vivo
Conditions: sandy soil, 10% moisture, 22 g, 20° C., 10 larvae, two replicates, 5 dose levels
Procedure: Residual soil activity of the compounds of Examples 25 to 40 was assessed against cornroot worm (Diabrotica balteata) using the following technique.
A known quantity of test compound dissolved in 1.0 ml acetone was applied evenly to a standard amount (22 g) of a sandy soil with a 10% moisture content. After 1 hour, 10 larvae were introduced. The temperature was maintained at 20° C. ±1° C. and mortality assessed after 48 hours. Two replicates of 10 larvae were used at each of 5 dose levels per compound. LC50 values were calculated as concentration of insecticide in the standard amount of soil using probit analysis.

| SMILES | Residual Soil Activity (LC50) [ppm] |
| --- | --- |
| Fc1ccc(C/C=C/C2(c3ccc(Cl)cc3)CC2)cc1Oc1ccccc1 [Comp A, 1-(4-chlorophenyl)-1-(E-3-(4-fluoro-3-phenoxyphenyl)prop-1-enyl)-cyclopropane, reference compound] | 0.68 |
| CCOc1ccc(C2(/C=C/Cc3ccc(F)c(Oc4ccccc4)c3)CC2)cc1 [Comp B, 1-(4-ethoxyphenyl)-1-(E-3-(4-fluoro-3-phenoxyphenyl)prop-1-enyl)-cyclopropane, reference compound] | 0.43 |
| Fc1ccc(C2(/C=C/Cc3ccc(F)c(Oc4ccccc4)c3)CC2)cc1 [Comp C, 1-(4-fluorophenyl)-1-(E-3-(4-fluoro-3-phenoxyphenyl)prop-1-enyl)-cyclopropane, reference compound] | 0.059 |
| FC(F)(F)Oc1ccc(C2(/C=C/Cc3cccc(Oc4ccccc4)c3)CC2)cc1 [Comp D, 1-(4-trifluoromethoxyphenyl)-1-(E-3-(3-phenoxyphenyl)prop-1-enyl)-cyclopropane, reference compound] | 0.059 |
| F/C(=C\C1(c2ccc(Cl)cc2)CC1)Cc1cccc(Oc2ccccc2)c1 [Example 25, 1-(4-Chlorophenyl)-1-(2-fluoro-3-(3-phenoxyphenyl)prop-1-enyl)cyclopropane] | 0.031 |
| CCOc1ccc(C2(/C=C(\F)Cc3cccc(Oc4ccccc4)c3)CC2)cc1 [Example 26, 1-(4-Ethoxyphenyl)-1-(2-fluoro-3-(3-phenoxyphenyl)prop-1-enyl)cyclopropane] | 0.029 |
| F/C(=C\C1(c2ccc(OC(F)(F)F)cc2)CC1)Cc1cccc(Oc2ccccc2)c1 [Example 27, 1-(2-Fluoro-3-(3-phenoxyphenyl)prop-1-enyl)-1-(4-trifluoromethoxy-phenyl)cyclopropane] | 0.038 |
| F/C(=C\C1(c2ccc(F)cc2)CC1)Cc1cccc(Oc2ccccc2)c1 [Example 28, 1-(2-Fluoro-3-(3-phenoxyphenyl)prop-1-enyl)-1-(4-fluorophenyl)cyclopropane] | 0.015 |
| F/C(=C\C1(c2ccc(C(F)(F)F)cc2F)CC1)Cc1cccc(Oc2ccccc2)c1 [Example 29, 1-(2-Fluoro-3-(3-phenoxyphenyl)prop-1-enyl)-1-(2-fluoro-4-trifluoromethylphenyl) cyclopropane] | 0.030 |
| F/C(=C\C1(c2ccc3c(c2)OCO3)CC1)Cc1cccc(Oc2ccccc2)c1 [Example 30, 1-(2-Fluoro-3-(3-phenoxyphenyl)prop-1-enyl)-1-(3,4-methylenedioxyphenyl)cyclopropane] | 0.021 |
| F/C(=C\C1(c2ccc(OC(F)F)cc2)CC1)Cc1cccc(Oc2ccccc2)c1 [Example 32, 1-(4-Difluoromethoxyphenyl)-1-(2-fluoro-3-(3-phenoxyphenyl)prop-1-enyl)cyclopropane] | 0.055 |
| CCOc1ccc(C2(/C=C(\F)Cc3ccc(F)c(Oc4ccccc4)c3)CC2)cc1 [Example 34, 1-(4-Ethoxyphenyl)-1-(2-fluoro-3-(4-fluoro-3-phenoxyphenyl)prop-1-enyl)cyclopropane] | 0.031 |
| F/C(=C\C1(c2ccc(F)cc2)CC1)Cc1ccc(F)c(Oc2ccccc2)c1 [Example 35, 1-(2-Fluoro-3-(4-fluoro-3-phenoxyphenyl)prop-1-enyl)-1-(4-fluorophenyl)cyclopropane] | 0.032 |
| F/C(=C\C1(c2ccc(C(F)(F)F)cc2F)CC1)Cc1ccc(F)c(Oc2ccccc2)c1 [Example 36, 1-(2-Fluoro-3-(4-fluoro-3-phenoxyphenyl)prop-1-enyl)-1-(2-fluoro-4-trifluoromethylphenyl)cyclopropane] | 0.021 |
| F/C(=C\C1(c2ccc3c(c2)OCO3)CC1)Cc1ccc(F)c(Oc2ccccc2)c1 [Example 37, 1-(2-Fluoro-3-(4-fluoro-3-phenoxyphenyl)prop-1-enyl)-1-(3,4-methylenedioxyphenyl)cyclopropane] | 0.055 |
| F/C(=C\C1(c2ccc(OC(F)F)cc2)CC1)Cc1ccc(F)c(Oc2ccccc2)c1 [Example 39, 1-(4-Difluoromethoxyphenyl)-1-(2-fluoro-3-(4-fluoro-3-phenoxyphenyl)prop-1-enyl)cyclopropane] | 0.033 |
